Biological target: CB1 receptors (Rattus norvegicus, UniProt P20272)
Assay: Antagonism of WIN 55,212-2 induced hypothermia in vivo
Conditions: for capability to pass the hemato-encephalic barrier: concluded from the hypothermia test; for antagonism of the body temperature reduction induced by WIN 55,212-2: i.p., compound 30 minutes before WIN 55,212-2 (3 mg/kg)
Experimental: The rectal temperature in the rat was determined by an electronic thermometer inserted at a 2 mm depth. The measurements were carried out on rats acclimated for one hour. The rectal temperature was determined before and after (from 30 to 120 minutes) the i.p. administration of the compound to be tested.
Each test was repeated on ten animals; the reported results are the average of the results obtained with the ten animals.

[1] = WIN 55,212-2 (3 mg/kg) + compound 0.1 mg/kg, 0 min from WIN administration
[2] = WIN 55,212-2 (3 mg/kg) + compound 0.1 mg/kg, 15 min
[3] = WIN 55,212-2 (3 mg/kg) + compound 0.1 mg/kg, 30 min
[4] = WIN 55,212-2 (3 mg/kg) + compound 0.1 mg/kg, 60 min
[5] = WIN 55,212-2 (3 mg/kg) + compound 0.1 mg/kg, 90 min
[6] = WIN 55,212-2 (3 mg/kg) + compound 0.1 mg/kg, 120 min
[7] = WIN 55,212-2 (3 mg/kg) + compound 0.5 mg/kg, 0 min from WIN administration
[8] = WIN 55,212-2 (3 mg/kg) + compound 0.5 mg/kg, 15 min
[9] = WIN 55,212-2 (3 mg/kg) + compound 0.5 mg/kg, 30 min
[10] = WIN 55,212-2 (3 mg/kg) + compound 0.5 mg/kg, 60 min
[11] = WIN 55,212-2 (3 mg/kg) + compound 0.5 mg/kg, 90 min
[12] = WIN 55,212-2 (3 mg/kg) + compound 0.5 mg/kg, 120 min
[13] = WIN 55,212-2 (3 mg/kg) + compound 1.0 mg/kg, 0 min from WIN administration
[14] = WIN 55,212-2 (3 mg/kg) + compound 1.0 mg/kg, 15 min
[15] = WIN 55,212-2 (3 mg/kg) + compound 1.0 mg/kg, 30 min
[16] = WIN 55,212-2 (3 mg/kg) + compound 1.0 mg/kg, 60 min
[17] = WIN 55,212-2 (3 mg/kg) + compound 1.0 mg/kg, 90 min
[18] = WIN 55,212-2 (3 mg/kg) + compound 1.0 mg/kg, 120 min
[19] = WIN 55,212-2 (3 mg/kg) + compound 3.0 mg/kg, 0 min from WIN administration
[20] = WIN 55,212-2 (3 mg/kg) + compound 3.0 mg/kg, 15 min
[21] = WIN 55,212-2 (3 mg/kg) + compound 3.0 mg/kg, 30 min
[22] = WIN 55,212-2 (3 mg/kg) + compound 3.0 mg/kg, 60 min
[23] = WIN 55,212-2 (3 mg/kg) + compound 3.0 mg/kg, 90 min
[24] = WIN 55,212-2 (3 mg/kg) + compound 3.0 mg/kg, 120 min
[25] = WIN 55,212-2 (3 mg/kg) + compound 6.0 mg/kg, 0 min from WIN administration
[26] = WIN 55,212-2 (3 mg/kg) + compound 6.0 mg/kg, 15 min
[27] = WIN 55,212-2 (3 mg/kg) + compound 6.0 mg/kg, 30 min
[28] = WIN 55,212-2 (3 mg/kg) + compound 6.0 mg/kg, 60 min
[29] = WIN 55,212-2 (3 mg/kg) + compound 6.0 mg/kg, 90 min
[30] = WIN 55,212-2 (3 mg/kg) + compound 6.0 mg/kg, 120 min

Chain of CB1 receptors (P20272 whole entry): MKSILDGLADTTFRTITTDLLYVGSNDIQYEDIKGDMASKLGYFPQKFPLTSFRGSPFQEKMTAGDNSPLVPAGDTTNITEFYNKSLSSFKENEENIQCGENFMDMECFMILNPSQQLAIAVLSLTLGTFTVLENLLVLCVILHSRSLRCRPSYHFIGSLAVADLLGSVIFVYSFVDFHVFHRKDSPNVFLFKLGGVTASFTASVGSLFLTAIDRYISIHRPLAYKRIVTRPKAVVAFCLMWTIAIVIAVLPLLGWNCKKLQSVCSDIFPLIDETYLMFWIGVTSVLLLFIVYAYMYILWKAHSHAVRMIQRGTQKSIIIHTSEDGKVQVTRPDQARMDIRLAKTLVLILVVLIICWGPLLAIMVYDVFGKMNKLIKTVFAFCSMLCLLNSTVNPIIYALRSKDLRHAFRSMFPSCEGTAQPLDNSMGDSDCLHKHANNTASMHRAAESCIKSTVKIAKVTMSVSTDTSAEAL

Q: Which “Body temperature (° C.)” value [1] does the source give for `Cc1c(C(=O)NN2CCCCC2)nn(-c2ccc(Cl)cc2Cl)c1-c1ccc(Cl)s1` [Example 3.1b, N-piperidinyl-5-(5-Chloro-thiophen-2-yl)-1-(2′,4′-dichloro-phenyl)-4-methyl-1H-pyrazol-3-carboxamide] here?
A: 38.5 °C

Q: What about the “Body temperature (° C.)” value [2] of the same molecule?
A: 35.1 °C

Q: What about the “Body temperature (° C.)” value [3] of the same molecule?
A: 33.8 °C

Q: What about the “Body temperature (° C.)” value [4] of the same molecule?
A: 35.3 °C

Q: And the “Body temperature (° C.)” value [5]?
A: 36.9 °C

Q: What about the “Body temperature (° C.)” value [6] of the same molecule?
A: 37.3 °C

Q: And the “Body temperature (° C.)” value [7]?
A: 38.1 °C

Q: What about the “Body temperature (° C.)” value [8] of the same molecule?
A: 35.8 °C

Q: And the “Body temperature (° C.)” value [9]?
A: 34.5 °C

Q: What about the “Body temperature (° C.)” value [10] of the same molecule?
A: 35.7 °C

Q: And the “Body temperature (° C.)” value [11]?
A: 36.7 °C

Q: And the “Body temperature (° C.)” value [12]?
A: 37.3 °C

Q: And the “Body temperature (° C.)” value [13]?
A: 38.3 °C

Q: And the “Body temperature (° C.)” value [14]?
A: 36.1 °C

Q: What about the “Body temperature (° C.)” value [15] of the same molecule?
A: 35.7 °C

Q: What about the “Body temperature (° C.)” value [16] of the same molecule?
A: 36.8 °C

Q: What about the “Body temperature (° C.)” value [17] of the same molecule?
A: 37.8 °C

Q: And the “Body temperature (° C.)” value [18]?
A: 37.9 °C

Q: And the “Body temperature (° C.)” value [19]?
A: 38.4 °C

Q: What about the “Body temperature (° C.)” value [20] of the same molecule?
A: 36.1 °C

Q: And the “Body temperature (° C.)” value [21]?
A: 35.7 °C

Q: What about the “Body temperature (° C.)” value [22] of the same molecule?
A: 36.8 °C

Q: And the “Body temperature (° C.)” value [23]?
A: 37.8 °C

Q: And the “Body temperature (° C.)” value [24]?
A: 37.9 °C

Q: What about the “Body temperature (° C.)” value [25] of the same molecule?
A: 38.6 °C

Q: And the “Body temperature (° C.)” value [26]?
A: 37.7 °C

Q: What about the “Body temperature (° C.)” value [27] of the same molecule?
A: 37.9 °C

Q: And the “Body temperature (° C.)” value [28]?
A: 37.9 °C

Q: What about the “Body temperature (° C.)” value [29] of the same molecule?
A: 38.2 °C

Q: And the “Body temperature (° C.)” value [30]?
A: 37.9 °C

Q: What about the “capability to pass the hemato-encephalic barrier” value of the same molecule?
A: capable to pass the hemato-encephalic barrier

Q: What about the “CB1 antagonist behaviour in vivo” value (hypothermia test) of the same molecule?
A: shows a CB1 antagonist behaviour

Q: And the “antagonism of the body temperature reduction induced by WIN 55,212-2” value?
A: able to antagonize the effect of WIN 55,212-2

Q: What does the source list for “N-pyrrolidinyl-5-(5-Chloro-thiophen-2-yl)-1-(2,4′-dichloro-phenyl)-4-methyl-1H-pyrazol-3-carboxamide [Example 3.1d]”?
A: Body temperature (° C.) [1]: 38.1 °C; Body temperature (° C.) [2]: 35.3 °C; Body temperature (° C.) [3]: 33.8 °C; Body temperature (° C.) [4]: 35.6 °C; Body temperature (° C.) [5]: 36.5 °C; Body temperature (° C.) [6]: 37.2 °C; Body temperature (° C.) [7]: 38.1 °C; Body temperature (° C.) [8]: 35.7 °C; Body temperature (° C.) [9]: 34.4 °C; Body temperature (° C.) [10]: 35.0 °C; Body temperature (° C.) [11]: 36.3 °C; Body temperature (° C.) [12]: 37.2 °C; Body temperature (° C.) [13]: 37.9 °C; Body temperature (° C.) [14]: 36.5 °C; Body temperature (° C.) [15]: 34.7 °C; Body temperature (° C.) [16]: 35.8 °C; Body temperature (° C.) [17]: 36.7 °C; Body temperature (° C.) [18]: 37.1 °C; Body temperature (° C.) [19]: 38.4 °C; Body temperature (° C.) [20]: 37.0 °C; Body temperature (° C.) [21]: 36.8 °C; Body temperature (° C.) [22]: 37.3 °C; Body temperature (° C.) [23]: 37.7 °C; Body temperature (° C.) [24]: 37.6 °C; Body temperature (° C.) [25]: 37.8 °C; Body temperature (° C.) [26]: 36.9 °C; Body temperature (° C.) [27]: 36.9 °C; Body temperature (° C.) [28]: 37.2 °C; Body temperature (° C.) [29]: 37.8 °C; Body temperature (° C.) [30]: 37.9 °C; capability to pass the hemato-encephalic barrier: able to pass the hemato-encephalic barrier; antagonism of the body temperature reduction induced by WIN 55,212-2: able to antagonize the effect of WIN 55,212-2

— patent US8227620B2, “Pharmaceutical compounds” (Neuroscienze Pharmaness S.C. A.R.L., priority 2004, dated 2012)
